Experimental data taken from ChEMBL document CHEMBL4390668, “Discovery and Structural Optimization of Acridones as Broad-Spectrum Antimalarials” (J Med Chem, 2019).
Activity calls are given as the source filed them. No cut-off for these calls is given here.

Columns and labels:
[1] = Apparent elimination half life in ICR mouse plasma at 80 mg/kg, po administered as single dose; assay type: ADME, organism-based; details: ICR, plasma, read-out: betat1/2(app) (converted)
[2] = target: hERG (KCNH2) (Homo sapiens, UniProt Q12809); assay: Inhibition of human ERG expressed in CHOK1 cells at 10 uM by automated patch clamp method relative to control; assay type: cell-based; details: CHO-K1 cells that express hERG
[3] = Tmax in ICR mouse liver at 80 mg/kg, po administered as single dose; assay type: ADME, organism-based
[4] = tested on: Plasmodium falciparum; assay: Antimalarial activity against atovaquone-resistant Plasmodium falciparum Tm90-C2B infected in human erythrocytes by SYBR green 1-based fluorescence assay; assay type: functional, organism-based
[5] = Mutagenicity in Salmonella typhimurium TA98 assessed as increase in revertant colonies up to 10 uM in absence of S9 fraction by Ames test; assay type: toxicity; details: salmonella enterica subsp. enterica serovar typhimurium
[6] = Mean residence time in ICR mouse plasma at 80 mg/kg, po administered as single dose; assay type: ADME, organism-based
[7] = Cmax in ICR mouse plasma at 80 mg/kg, po administered as single dose; assay type: ADME, organism-based; design: dose 80 mg/kg, route oral; details: ICR, plasma, read-out: Cmax
[8] = Tmax in ICR mouse plasma at 80 mg/kg, po administered as single dose; assay type: ADME, organism-based; details: ICR, plasma, read-out: Tmax
[9] = AUC (0 to last) in ICR mouse plasma at 80 mg/kg, po administered as single dose; assay type: ADME, organism-based; design: dose 80 mg/kg, route oral, time 0 - last
[10] = tested on: Plasmodium berghei; assay: Antimalarial activity against luciferase-expressing Plasmodium berghei ANKA 676m1cl1 sporozoites infected in human HepG2A16 cells measured after 45 hrs by luciferase-luciferin based reporter assay; assay type: functional, organism-based; details: ANKA 676m1cl1, HepG2A16, 45 h
[11] = tested on: Plasmodium falciparum; assay: Antimalarial activity against multidrug-resistant Plasmodium falciparum Dd2 infected in human erythrocytes by SYBR green 1-based fluorescence assay; assay type: functional, organism-based
[12] = Apparent clearance in ICR mouse plasma at 80 mg/kg, po administered as single dose; assay type: ADME, organism-based; details: read-out: CL(app) (converted)
[13] = Mean residence time in ICR mouse liver at 80 mg/kg, po administered as single dose; assay type: ADME, organism-based
[14] = tested on: HepG2; assay: Cytotoxicity against human HepG2 cells measured after 24 to 36 hrs by resazurin dye based fluorescence assay; assay type: cell-based
[15] = Apparent elimination half life in ICR mouse liver at 80 mg/kg, po administered as single dose; assay type: ADME, organism-based; details: read-out: betat1/2(app) (converted)
[16] = AUC (0 to last) in ICR mouse liver at 80 mg/kg, po administered as single dose; assay type: ADME, organism-based; design: dose 80 mg/kg, route oral, time 0 - last
[17] = tested on: Plasmodium falciparum; assay: Antimalarial activity against chloroquine-sensitive Plasmodium falciparum D6 infected in human erythrocytes by SYBR green 1-based fluorescence assay; assay type: functional, organism-based
[18] = Cmax in ICR mouse liver at 80 mg/kg, po administered as single dose; assay type: ADME, organism-based; design: dose 80 mg/kg, route oral
[19] = tested on: Plasmodium berghei; assay: (§1) Antimalarial activity against blood stage luciferase-expressing Plasmodium berghei ANKA 676m1cl1 sporozoites infected in C57BL/6 mouse assessed as suppression of parasitemia at 10 mg/kg, po pretreated for 1 day followed by parasite infection and subsequent compound dosing for 2 days measured up to 30 days post-infection by YOYO1 staining based flow cytometry; assay type: functional
[20] = Half life in mouse liver microsomes at 1 uM by LC-MS analysis; assay type: ADME, Microsome
[21] = Mutagenicity in Salmonella typhimurium TA98 assessed as increase in revertant colonies up to 10 uM in presence of S9 fraction by Ames test; assay type: toxicity, subcellular; details: salmonella enterica subsp. enterica serovar typhimurium
[22] = Mutagenicity in Salmonella typhimurium TA100 assessed as increase in revertant colonies up to 10 uM in presence of S9 fraction by Ames test; assay type: toxicity, subcellular; details: salmonella enterica subsp. enterica serovar typhimurium
[23] = tested on: Plasmodium yoelii; assay: (§2) Antimalarial activity against blood stage Plasmodium yoelii MR4 MRA-428 infected in CF1 mouse assessed as suppression of parasitemia administered once daily via oral gavage for 4 days starting from 24 hrs post-infection and measured post-last dose by Giemsa-staining based microscopic analysis; assay type: functional
[24] = Apparent volume of distribution in ICR mouse plasma at 80 mg/kg, po administered as single dose; assay type: ADME, organism-based; details: in vivo
[25] = Half life in human liver microsomes at 1 uM by LC-MS analysis; assay type: ADME, Microsome
[26] = Selectivity index, ratio of IC50 for human HepG2 cells to IC50 for chloroquine-sensitive Plasmodium falciparum D6 infected in human erythrocytes; assay type: toxicity, cell-based; details: read-out: Ratio IC50
[27] = Mutagenicity in Salmonella typhimurium TA100 assessed as increase in revertant colonies up to 10 uM in absence of S9 fraction by Ames test; assay type: toxicity; details: salmonella enterica subsp. enterica serovar typhimurium
[28] = AUC (0 to infinity) in ICR mouse liver at 80 mg/kg, po administered as single dose; assay type: ADME, organism-based; design: dose 80 mg/kg, route oral, time infinity
[29] = tested on: Plasmodium falciparum; assay: Antimalarial activity against multidrug-resistant Plasmodium falciparum 7G8 infected in human erythrocytes by SYBR green 1-based fluorescence assay; assay type: functional, organism-based
[30] = AUC (0 to infinity) in ICR mouse plasma at 80 mg/kg, po administered as single dose; assay type: ADME, organism-based; design: dose 80 mg/kg, route oral, time infinity; details: ICR, plasma
[31] = tested on: Plasmodium berghei; assay: as §1, with “against liver” for “against blood”, “measured at 24” for “measured up”, “to 48 hrs” for “to 30 days”, “by luciferin-based real-time imaging analysis” for “by YOYO1 staining based flow cytometry”; assay type: functional
[32] = tested on: Plasmodium falciparum; assay: Antimalarial activity against drug-resistant Plasmodium falciparum Dd2 harboring M133I/A138T double mutant infected in human erythrocytes after 72 hrs by SYBR green 1-based fluorescence assay; assay type: functional, organism-based; details: Dd2, 72 h
[33] = tested on: Plasmodium falciparum; assay: Antimalarial activity against drug-resistant Plasmodium falciparum Dd2 harboring V259L mutant infected in human erythrocytes after 72 hrs by SYBR green 1-based fluorescence assay; assay type: functional, organism-based; details: Dd2, 72 h
[34] = Toxicity in CF1 mouse infected with blood stage Plasmodium yoelii MR4 MRA-428 assessed as behavioral changes at 80 mg/kg, po administered once daily via gavage for 4 days starting from for 4 days starting from 24 hrs post-infection and measured daily during compound dosing; assay type: organism-based; details: in vivo
[35] = tested on: Plasmodium falciparum; assay: Inhibition of Plasmodium falciparum cytochrome b-c1
[36] = tested on: Plasmodium berghei; assay: as §1, with “4” for “10”; assay type: functional
[37] = tested on: Plasmodium falciparum; assay: Antimalarial activity against drug-resistant Plasmodium falciparum 3D7 harboring A82T/V259L double mutant infected in human erythrocytes after 72 hrs by SYBR green 1-based fluorescence assay; assay type: functional, organism-based; details: 3D7, 72 h
[38] = Toxicity in CF1 mouse infected with blood stage Plasmodium yoelii MR4 MRA-428 assessed as clinical toxicity at 80 mg/kg, po administered once daily via gavage for 4 days starting from for 4 days starting from 24 hrs post-infection and measured daily during compound dosing; assay type: organism-based; details: in vivo
[39] = Apparent volume of distribution in ICR mouse liver at 80 mg/kg, po administered as single dose; assay type: ADME, organism-based; details: in vivo
[40] = tested on: Plasmodium yoelii; assay: as §2, with “parasitemia at 80 mg/kg, po” for “parasitemia”, “via” for “via oral”, “at weekly intervals for 28 days” for “post-last dose”; assay type: functional
[41] = tested on: Plasmodium falciparum; assay: Antimalarial activity against drug-resistant Plasmodium falciparum Dd2 harboring M133I mutant infected in human erythrocytes after 72 hrs by SYBR green 1-based fluorescence assay; assay type: functional, organism-based; details: Dd2, 72 h
[42] = tested on: Plasmodium falciparum; assay: Antimalarial activity against Plasmodium falciparum 3D7 infected in human erythrocytes after 72 hrs by SYBR green 1-based fluorescence assay; assay type: functional, organism-based; details: 3D7, 72 h

Sequence of hERG (KCNH2) (Q12809 whole entry): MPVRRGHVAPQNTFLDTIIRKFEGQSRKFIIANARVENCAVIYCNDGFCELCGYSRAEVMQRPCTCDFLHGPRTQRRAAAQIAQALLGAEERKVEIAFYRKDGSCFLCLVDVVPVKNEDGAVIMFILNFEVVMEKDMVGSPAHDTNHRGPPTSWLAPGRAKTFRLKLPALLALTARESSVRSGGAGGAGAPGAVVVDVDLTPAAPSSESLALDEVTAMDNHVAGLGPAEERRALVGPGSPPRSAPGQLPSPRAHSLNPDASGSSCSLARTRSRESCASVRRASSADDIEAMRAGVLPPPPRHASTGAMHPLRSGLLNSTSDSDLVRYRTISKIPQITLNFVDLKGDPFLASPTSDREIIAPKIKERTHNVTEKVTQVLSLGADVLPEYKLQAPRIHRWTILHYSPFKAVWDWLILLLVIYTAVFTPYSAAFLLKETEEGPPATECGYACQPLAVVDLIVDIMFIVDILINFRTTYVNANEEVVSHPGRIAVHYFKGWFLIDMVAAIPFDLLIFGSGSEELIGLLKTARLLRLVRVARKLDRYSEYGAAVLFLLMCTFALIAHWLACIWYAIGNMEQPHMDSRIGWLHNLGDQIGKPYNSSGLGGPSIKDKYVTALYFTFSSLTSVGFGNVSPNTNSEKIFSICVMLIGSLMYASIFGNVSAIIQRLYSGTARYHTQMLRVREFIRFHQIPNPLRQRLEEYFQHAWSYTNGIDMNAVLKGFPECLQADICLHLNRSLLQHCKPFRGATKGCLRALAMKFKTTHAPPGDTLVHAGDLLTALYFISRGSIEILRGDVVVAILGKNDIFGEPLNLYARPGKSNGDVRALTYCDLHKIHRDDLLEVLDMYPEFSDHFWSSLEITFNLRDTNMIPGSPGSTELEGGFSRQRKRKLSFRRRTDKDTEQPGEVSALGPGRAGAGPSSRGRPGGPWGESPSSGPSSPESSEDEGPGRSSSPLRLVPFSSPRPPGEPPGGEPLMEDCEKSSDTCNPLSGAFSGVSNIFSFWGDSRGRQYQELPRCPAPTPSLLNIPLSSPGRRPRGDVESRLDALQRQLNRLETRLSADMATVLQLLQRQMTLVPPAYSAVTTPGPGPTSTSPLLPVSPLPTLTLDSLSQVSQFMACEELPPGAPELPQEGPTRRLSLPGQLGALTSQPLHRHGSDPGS

Compound	half-life [1] [min]	inhibition at 10 µM [2] [%]	Tmax [3] [h]	IC50 [4] [nM]	Activity [5]	MRT [6] [h]	Cmax [7] [ng/mL]	Tmax [8] [h]	AUC(0-t) [9] [ng·h/mL]	IC50 [10] [nM]	IC50 [11] [nM]	CL/F [12] [mL/min/kg]	MRT [13] [h]	half-life [15] [min]	AUC(0-t) [16] [µg·h/mL]	Cmax [18] [ng/mL]	Activity [19] [%]	half-life at 1 µM [20] [min]	Activity [21]	Activity [22]	also measured
CCCN(CCC)CCCOc1ccc2c(=O)c3c(F)cc(F)cc3[nH]c2c1	467	102	4	440	Non-Toxic	11.8	526	7.78	3430	3.4	0.49	265	13.3	395	236	19700	100	> 60	Non-Toxic	Non-Toxic	IC50 [14]: 61.5 µM; IC50 [17]: 0.35 nM; ED50 [23]: 0.6 mg/kg.day; ED90 [23]: 2.48 mg/kg.day; Vz [24]: 175302 mL/kg; half-life at 1 µM [25]: > 60 min; selectivity ratio [26]: 176000; Activity [27]: Non-Toxic; AUC(0-inf) [28]: 237 µg·h/mL; IC50 [29]: 2.1 nM; AUC(0-inf) [30]: 5080 ng·h/mL; Activity [31]: 100%
CCCCN(CCCC)CCOc1ccc2c(=O)c3c(Cl)c(Cl)ccc3[nH]c2c1	360	57	2.75	228	Non-Toxic	6.96	226	2.75	3050	0.5	0.041 to 14	431	10.1	278	168	21300	100	21	Non-Toxic	Non-Toxic	IC50 [32]: 38 nM; IC50 [33]: 140 nM; Activity [34]: Non-Toxic; inhibition [35]: inactive; Activity [36]: 100%; IC50 [37]: 57 nM; ED50 [23]: 1.03 mg/kg.day; ED90 [23]: 1.64 mg/kg.day; Vz [24]: 223865 mL/kg; half-life at 1 µM [25]: 12 min; Activity [38]: Non-Toxic; Vz [39]: 3605 mL/kg; Activity [27]: Non-Toxic; AUC(0-inf) [28]: 169 µg·h/mL; IC50 [29]: 0.043 nM; AUC(0-inf) [30]: 3240 ng·h/mL; Activity [40]: 100%; Activity [31]: 100%
Clc1ccc2c(N3CCN(CCCN4CCN(c5ccnc6cc(Cl)ccc56)CC4)CC3)ccnc2c1 [PIPERAQUINE]																					IC50 [41]: 10 nM; IC50 [32]: 7.4 nM; IC50 [33]: 7.1 nM; inhibition [35]: inactive; IC50 [37]: 5 nM; IC50 [42]: 7.2 nM
